Experimental data as given in article PMC4300089, “Structure-Guided Design of Selective Epac1 and Epac2 Agonists” (PLoS Biology, 2015).

What was measured:
[1] = molecular target: T1, Epac2^fl (Mus musculus, UniProt Q9EQZ6); assay: Epac activation assay, full length Epac2; type: biochemical; set-up: made in house
T1 sequence (Q9EQZ6 1-993 isoform Q9EQZ6-3): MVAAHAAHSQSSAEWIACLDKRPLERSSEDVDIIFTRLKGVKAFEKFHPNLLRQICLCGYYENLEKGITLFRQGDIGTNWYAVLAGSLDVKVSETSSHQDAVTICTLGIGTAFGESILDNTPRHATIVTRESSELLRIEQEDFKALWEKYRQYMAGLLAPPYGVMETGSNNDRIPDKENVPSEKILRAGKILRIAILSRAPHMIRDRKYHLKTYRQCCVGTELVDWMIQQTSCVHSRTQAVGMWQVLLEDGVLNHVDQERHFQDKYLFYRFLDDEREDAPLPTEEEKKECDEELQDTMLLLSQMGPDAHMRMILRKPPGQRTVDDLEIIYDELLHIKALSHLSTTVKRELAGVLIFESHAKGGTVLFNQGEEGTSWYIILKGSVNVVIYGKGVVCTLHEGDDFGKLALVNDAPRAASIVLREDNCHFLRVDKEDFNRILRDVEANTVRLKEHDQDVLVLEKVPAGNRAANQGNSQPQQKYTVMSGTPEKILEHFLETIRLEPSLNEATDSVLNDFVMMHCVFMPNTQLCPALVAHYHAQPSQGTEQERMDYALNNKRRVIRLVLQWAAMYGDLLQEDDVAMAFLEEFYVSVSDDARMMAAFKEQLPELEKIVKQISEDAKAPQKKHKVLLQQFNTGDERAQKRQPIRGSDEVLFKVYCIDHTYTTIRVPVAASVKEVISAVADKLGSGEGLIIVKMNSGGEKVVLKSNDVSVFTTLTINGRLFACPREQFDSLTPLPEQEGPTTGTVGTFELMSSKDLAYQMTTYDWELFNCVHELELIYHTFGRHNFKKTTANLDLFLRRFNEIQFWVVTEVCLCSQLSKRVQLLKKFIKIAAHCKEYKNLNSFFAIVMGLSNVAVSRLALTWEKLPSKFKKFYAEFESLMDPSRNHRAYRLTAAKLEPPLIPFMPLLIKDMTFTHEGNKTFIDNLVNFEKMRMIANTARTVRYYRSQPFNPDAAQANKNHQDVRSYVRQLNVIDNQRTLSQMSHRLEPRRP
Experimental: Murine Epac2 was used as all previous structural studies were performed with it.
The activity of Epac was determined by a fluorescence assay. […] The fluorescence intensity of Rap1B•mGDP is approximately twice that of free mGDP, and thus, nucleotide exchange can be observed as a decay in fluorescence upon the addition of excess unlabeled GDP.

[2] = molecular target: T1, Epac2^fl; settings: footnote b, see also ref 11; cited from earlier work

Nc1ncnc2c1ncn2[C@@H]1O[C@@H]2COP(=O)(O)O[C@H]2[C@H]1O [cAMP, reference compound]
kobs ([1]; 0.2 μM compound): 1.9e-05 s⁻¹
kobs ([1]; 0.3 μM compound): 2e-05 s⁻¹
kobs ([1]; 0.4 μM compound): 2.1e-05 s⁻¹
kobs ([1]; 0.5 μM compound): 2.1e-05 s⁻¹
kobs ([1]; 0.6 μM compound): 2.5e-05 s⁻¹
kobs ([1]; 0.7 μM compound): 2.36e-05 s⁻¹
kobs ([1]; 0.8 μM compound): 2.47e-05 s⁻¹
kobs ([1]; 1 μM compound): 2.84e-05 s⁻¹
kobs ([1]; 2 μM compound): 3.47e-05 s⁻¹
kobs ([1]; 3 μM compound): 4.1e-05 s⁻¹
kobs ([1]; 4 μM compound): 4.71e-05 s⁻¹
kobs ([1]; 5 μM compound): 5.23e-05 s⁻¹
kobs ([1]; 6 μM compound): 5.05e-05 s⁻¹
kobs ([1]; 7 μM compound): 5.49e-05 s⁻¹
kobs ([1]; 8 μM compound): 6.35e-05 s⁻¹
kobs ([1]; 10 μM compound): 7.22e-05 s⁻¹
kobs ([1]; 20 μM compound): 0.000116 s⁻¹
kobs ([1]; 30 μM compound): 0.000142 s⁻¹
kobs ([1]; 40 μM compound): 0.000159 s⁻¹
kobs ([1]; 50 μM compound): 0.000167 s⁻¹
kobs ([1]; 60 μM compound): 0.000192 s⁻¹
kobs ([1]; 70 μM compound): 0.000198 s⁻¹
kobs ([1]; 80 μM compound): 0.000203 s⁻¹
kobs ([1]; 100 μM compound): 0.000207 s⁻¹
kobs ([1]; 200 μM compound): 0.000219 s⁻¹
kobs ([1]; 400 μM compound): 0.000212 s⁻¹
kobs ([1]; 600 μM compound): 0.000207 s⁻¹
kobs ([1]; 800 μM compound): 0.000224 s⁻¹
Rel. kmax [2]: 1.0^b
